Results reported in patent publication US20250340522A1, “ALBICIDIN DERIVATIVES, THEIR USE AND SYNTHESIS” (priority 2022, published 2025).
≈ marks a conversion by molar mass, not a printed value.

What was measured:
[1] = tested on: E. Coli. (50% human serum); assay: MIC, microdilution assay in presence of 50% human serum; assay type: cell-based; conditions: Escherichia coli, 20 h, Gram-negativ
Description: E. coli BW25113, S. typhimurium TA100; Bacillus subtilis DSM10; and M. phlei DSM 750 and human serum
(§1) The tests were performed using the micro dilution method.
(§2) The determination of MIC values was performed according to the ninth edition of the Approved Standard M07-A9 (CLSI. Methods for Dilution Antimicrobial Susceptibility Tests for Bacteria That Grow Aerobically; Approved Standard-Ninth Edition. CLSI document M07-A9. Wayne, PA: Clinical and Laboratory Standards Institute; 2012.)
(§3) The test was carried out for different bacterial strains (E. coli DSM 1116, E. coli BW25113 [gram negative], B. subtilis DSM 10 [gram positive], M. luteus DSM 1790 [gram positive], S. typhimurium TA100 [gram negative]) and M. phlei DSM 750. 20 µL of cryo stock of each strain were inoculated in 20 mL of LB media (Lysogeny broth: 10 g/L peptone, 5 g/L yeast extract, 5 g/L NaCl) followed by incubation over night at 37° C., 200 rpm. The test inoculum was adjusted by the 0.5 McFarland Standard (OD625 from 0.08 to 0.1). Within 15 min of preparation, the adjusted inoculum suspension was diluted in MHBII media (BBL TM Mueller-Hinton Broth II, Becton, Dickinson and Company, New Jersey/USA) so that each well contained approximately 5×10^5 CFU/mL in a final volume of 100 μL. 95 μL of the inoculum were applied per well and 5 μL of the (diluted) antibiotic substance were added.
(§4) Previously the dry antibiotic compounds were dissolved in DMSO (100%) with a concentration of 2560 μg/mL and the resulting stock solutions were further diluted in DMSO (100%). […] of each antibiotic dilution were applied to the microdilution tray to reach final concentrations of 64 μg/mL to 0.008 μg/ml. One row of each well plate was left as a growth control without antibiotic substances and another row of the microdilution tray was used as sterility control (only MHB II-media). The antimicrobial effect of the solvent (DMSO) was tested by adding 5 μL DMSO to several wells without antibiotics. Purity check and cell titer control were performed according to International Standard M07-A9 on Mueller-Hinton II Agar (Mueller Hinton II Broth, 15 g/L agar-agar). Both microdilution trays and agar plates were incubated at 37° C. for 20 h and subsequently analyzed visually.
(§5) The potency of an antibiotic is determined by the minimum inhibitory concentration (MIC). Contrary to intuition, a particularly low value is equated with a high potency.

[2] = tested on: B. subtilis DSM 10; assay: MIC, microdilution assay (CLSI M07-A9); assay type: cell-based; conditions: Bacillus subtilis, DSM10, Gram-positiv, MHBII media, 37° C., 20 h, tested 64 to 0.008 μg/mL
Description: as §1, §2, §3, §4, §5

[3] = tested on: E. coli BW25113; assay: MIC, microdilution assay (CLSI M07-A9); assay type: cell-based; conditions: Escherichia coli, Gram-negativ, MHBII media, 37° C., 20 h, tested 64 to 0.008 μg/mL
Description: as §1, §2, §3, §4, §5

[4] = tested on: M. phlei DSM 750; assay: MIC, microdilution assay (CLSI M07-A9); assay type: cell-based; conditions: Mycolicibacterium phlei, DSM750, MHBII media, 37° C., 20 h, tested 64 to 0.008 μg/mL
Description: as §1, §2, §3, §4, §5

[5] = tested on: S. typhimurium TA100; assay: MIC, microdilution assay (CLSI M07-A9); assay type: cell-based; conditions: Salmonella enterica, Gram-negativ, MHBII media, 37° C., 20 h, tested 64 to 0.008 μg/mL, read-out: MIC S. Typhimirium
Description: as §1, §2, §3, §4, §5

[6] = tested on: selected strains; assay: Antibacterial activity against selected strains, overall comparison with lead structure (Table 1); assay type: cell-based; conditions: D-variations in Table 1
Description: as §1, §2
The test was carried out for different bacterial strains (E. coli DSM 1116, E. coli BW25113 [gram negative], B. subtilis DSM 10 [gram positive], M. luteus DSM 1790 [gram positive], S. typhimurium TA100 [gram negative]) and M. phlei DSM 750. 20 µL of cryo stock of each strain were inoculated in 20 mL of LB media (Lysogeny broth: 10 g/L peptone, 5 g/L yeast extract, 5 g/L NaCl) followed by incubation over night at 37° C., 200 rpm. The test inoculum was adjusted by the 0.5 McFarland Standard (OD625 from 0.08 to 0.1). […]
Previously the dry antibiotic compounds were dissolved in DMSO (100%) with a concentration of 2560 μg/mL and the resulting stock solutions were further diluted in DMSO (100%). […] Both microdilution trays and agar plates were incubated at 37° C. for 20 h and subsequently analyzed visually.
The potency of an antibiotic is determined by the minimum inhibitory concentration (MIC). […]

[7] = tested on: M. luteus DSM 1790; assay: MIC, microdilution assay (CLSI M07-A9); assay type: cell-based; conditions: Micrococcus luteus, DSM1790, Gram-positiv, MHBII media, 37° C., 20 h, tested 64 to 0.008 μg/mL
Description: as §1, §2, §3, §4, §5

[8] = tested on: Pantoea dispersa; conditions: humans infected with the pathogen; background statement; cited from earlier work

| Compound | MIC [1] | MIC [2] | MIC [3] | MIC [4] | MIC [5] | Activity compared with the lead structure (0) [6] | MIC [7] | Treatment outcome of Pantoea dispersa infection [8] |
| --- | --- | --- | --- | --- | --- | --- | --- | --- |
| COc1c(NC(=O)c2ccc(NC(=O)c3ccc(NC(=O)[C@H](Cc4c[nH]nn4)NC(=O)c4ccc(NC(=O)/C(C)=C/c5ccc(O)cc5)cc4)cc3Cl)c(OC)c2O)ccc(C(=O)O)c1O [Compound 3] | 0.5 µg/mL | 0.063 µg/mL (≈ 0.0685 µM) | ≤ 0.016 µg/mL | 0.5 µg/mL (≈ 0.544 µM) | ≤ 0.016 µg/mL | about as active as the lead structure (0) | – | – |
| COc1c(NC(=O)c2ccc(NC(=O)c3ccc(NC(=O)[C@H](Cc4c[nH]nn4)NC(=O)c4ccc(NC(=O)/C(C)=C/c5ccc(O)cc5)cc4)cc3F)c(OC)c2O)ccc(C(=O)O)c1O [Compound 1] | 1 µg/mL | 0.125 µg/mL (≈ 0.138 µM) | 0.016 µg/mL (≈ 0.0177 µM) | 1 µg/mL (≈ 1.11 µM) | ≤ 0.016 µg/mL | – | 0.031 µg/mL (≈ 0.0343 µM) | – |
| CN(C)c1cc(NC(=O)CNC(C)(C)C)c(O)c2c1C[C@H]1C[C@H]3[C@H](N(C)C)C(O)=C(C(N)=O)C(=O)[C@@]3(O)C(O)=C1C2=O [tigecycline] | – | – | – | – | – | – | – | successful |
| O=C(O)[C@H]1/C(=C/CO)O[C@@H]2CC(=O)N21 [Clavulanic acid] | – | – | – | – | – | – | – | ineffective |
| COc1c(NC(=O)c2ccc(NC(=O)c3ccc(NC(=O)[C@H](Cc4c[nH]nn4)NC(=O)c4ccc(NC(=O)/C(C)=C/c5ccc(O)cc5)cc4)cc3I)c(OC)c2O)ccc(C(=O)O)c1O [Compound 8] | ≥ 8 µg/mL | 0.5 µg/mL (≈ 0.495 µM) | 0.063 µg/mL (≈ 0.0623 µM) | 4 µg/mL (≈ 3.96 µM) | 0.031 µg/mL (≈ 0.0307 µM) | – | 4 µg/mL (≈ 3.96 µM) | – |
| COc1c(NC(=O)c2ccc(NC(=O)c3ccc(NC(=O)[C@H](Cc4c[nH]nn4)NC(=O)c4ccc(NC(=O)/C(C)=C/c5ccc(O)cc5)cc4)cn3)c(OC)c2O)ccc(C(=O)O)c1O [Compound 0, reference compound] | 0.5 µg/mL | 0.031 µg/mL (≈ 0.035 µM) | ≤ 0.016 µg/mL | 0.125 µg/mL (≈ 0.141 µM) | ≤ 0.016 µg/mL | – | 0.031 µg/mL (≈ 0.035 µM) | – |
| colistin | – | – | – | – | – | – | – | successful |
| COc1c(NC(=O)c2ccc(NC(=O)c3ccc(NC(=O)[C@H](Cc4c[nH]nn4)NC(=O)c4ccc(NC(=O)/C(C)=C/c5ccc(O)cc5)cc4)cc3Br)c(OC)c2O)ccc(C(=O)O)c1O [Compound 6] | 1 µg/mL | 0.125 µg/mL (≈ 0.13 µM) | 0.016 µg/mL (≈ 0.0166 µM) | 1 µg/mL (≈ 1.04 µM) | 0.016 µg/mL (≈ 0.0166 µM) | – | 0.5 µg/mL (≈ 0.519 µM) | – |
| COc1c(NC(=O)c2ccc(NC(=O)c3ccc(NC(=O)[C@H](Cc4c[nH]nn4)NC(=O)c4ccc(NC(=O)/C(C)=C/c5ccc(O)cc5)cc4)cc3C(F)(F)F)c(OC)c2O)ccc(C(=O)O)c1O [Compound 5] | ≥ 8 µg/mL | 4 µg/mL (≈ 4.2 µM) | 0.125 µg/mL (≈ 0.131 µM) | 8 µg/mL (≈ 8.4 µM) | 0.031 µg/mL (≈ 0.0325 µM) | – | 4 µg/mL (≈ 4.2 µM) | – |
| COc1c(NC(=O)c2ccc(NC(=O)c3c(F)cc(NC(=O)[C@H](Cc4c[nH]nn4)NC(=O)c4ccc(NC(=O)/C(C)=C/c5ccc(O)cc5)cc4)cc3F)c(OC)c2O)ccc(C(=O)O)c1O [Compound 2] | 0.5 µg/mL | 0.125 µg/mL (≈ 0.136 µM) | ≤ 0.016 µg/mL | 1 µg/mL (≈ 1.09 µM) | ≤ 0.016 µg/mL | about as active as the lead structure (0) | 0.25 µg/mL (≈ 0.271 µM) | – |
